Source: US8546613B2, “SGK1 inhibitors for the prophylaxis and/or therapy of viral diseases and/or carcinomas” (priority 2008, dated 2013)

Experiments:
[1] = tested on: LCMV; set-up: species or system mice; settings: mouse, in vivo
[2] = tested on: colon carcinomas; assay: Chemically induced (DMH/DSS) colon carcinomas in mice; assay type: in vivo; settings: DMH/DSS-induced tumour genesis; 4.46 mg/g of feed (approx. 600 mg/kg) for 20 days, one week after the treatment; vs placebo
Procedure: To this end, colon tumours were induced chemically in the experimental animals (Wang J G, Wang D F, Lv B J, Si J M: A novel mouse model for colitis-associated colon carcinogenesis induced by 1,2-dimethylhydrazine and dextran sulfate sodium. World J Gastroenterol 2004; 10:2958-2962). Some of the experimental animals were subjected to three cycles of chemical tumour genesis at an age of 8 weeks. To this end, the animals were treated intraperitoneally with 20 mg/kg of 1,2-dimethylhydrazine (DMH; Sigma-Aldrich Corporation. St. Louis. Mo. USA). Starting one week later, distilled water containing 30 g/l of synthetic dextran sulfate sodium (DSS; molecular weight 5000; Wako Pure Chemical Industries Ltd. Japan) was administered to the animals three times for 7 days and distilled water was administered for a further 14 days (total duration 3×(1+2 weeks)=9 weeks in total). The remainder of the experimental animals (control animals) were instead supplied intraperitoneally by injection with 20 mg/kg of a 0.9% sodium chloride solution. All mice were anaesthetised with ether at the age of 22 weeks and subsequently killed.
One week after the treatment, either a placebo or the SGK1 inhibitor was administered for 20 days. The SGK1 inhibitor had been added to the feed in a mixing ratio of 4.46 mg/g of feed. This corresponds to an approximate dose of 600 mg/kg of body weight.

[3] = molecular target: T1, SGK1 protein kinase (Homo sapiens, UniProt O00141); assay: SGK1 protein kinase inhibition, filter binding method; assay type: biochemical; settings: read-out: SGK1 enzyme inhibition IC50
T1 sequence (O00141 1-431): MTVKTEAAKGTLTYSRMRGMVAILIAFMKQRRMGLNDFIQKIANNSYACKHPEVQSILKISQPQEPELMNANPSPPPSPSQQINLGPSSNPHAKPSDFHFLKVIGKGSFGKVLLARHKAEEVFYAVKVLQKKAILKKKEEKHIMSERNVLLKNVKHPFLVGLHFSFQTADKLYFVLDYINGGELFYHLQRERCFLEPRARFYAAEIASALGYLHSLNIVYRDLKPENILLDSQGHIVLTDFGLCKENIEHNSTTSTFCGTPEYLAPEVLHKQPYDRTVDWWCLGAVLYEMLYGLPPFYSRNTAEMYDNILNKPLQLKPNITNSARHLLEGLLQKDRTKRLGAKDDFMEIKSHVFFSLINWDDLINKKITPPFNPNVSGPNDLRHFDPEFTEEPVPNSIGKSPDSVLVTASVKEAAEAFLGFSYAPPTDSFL
From the text: Further assays are known from the literature and could easily be carried out by the person skilled in the art (see, for example, Dhanabal et al., Cancer Res. 59:189-197; Xin et al., J. Biol. Chem. 274:9116-9121; Sheu et al., Anticancer Res. 18:4435-4441; Ausprunk et al., Dev. Biol. 38:237-248; Gimbrone et al., J. Natl. Cancer Inst. 52:413-427; Nicosia et al., In Vitro 18:538-549).
The inhibition of SGK1 protein kinase can be determined in the filter binding method.

Compound | bilirubin concentration [1] | concentration of alanine aminotransferase [1] | growth of colon tumours [2] | IC50 [3] [µM]
CCc1c(C(=O)NNC(=O)C(O)c2cc(F)cc(F)c2)ccc(O)c1C (racemic) [I, N′-[2-(3,5-Difluorophenyl)-2-hydroxyacetyl]-2-ethyl-4-hydroxy-3-methylbenzohydrazide] | significantly reduced | significantly reduced | significantly inhibited | > 0.3
CCc1c(C(=O)NNC(=O)[C@@H](O)c2cc(F)cc(F)c2)ccc(O)c1C [Ia, N′-[(S)-2-(3,5-Difluorophenyl)-2-hydroxyacetyl]-2-ethyl-4-hydroxy-3-methylbenzohydrazide] |  |  |  | > 0.3
